Numbered stars: 1 amine (or outer) side, 2 acyl side, 3 side chain; on linkers, the order of the positions; unused ones are H or OH. Square brackets hold non-standard residues; d marks the D form. Peptide text beside a SMILES is read from it. ξ: configuration not given here. X1 = C/C(=N/O)C(C)(C)NCCC(CCNC(C)(C)/C(C)=N\O)CCN(CC(=O)[*:2])[*:1]; Ile(3ξ) = CCC(C)[C@H](N)C(=O)O
Molecular target: T1, ACE (Sigma A-6778) (Oryctolagus cuniculus, UniProt P12822)
T1 construct: purchased Sigma A-6778
T1 sequence (P12822 34-1310): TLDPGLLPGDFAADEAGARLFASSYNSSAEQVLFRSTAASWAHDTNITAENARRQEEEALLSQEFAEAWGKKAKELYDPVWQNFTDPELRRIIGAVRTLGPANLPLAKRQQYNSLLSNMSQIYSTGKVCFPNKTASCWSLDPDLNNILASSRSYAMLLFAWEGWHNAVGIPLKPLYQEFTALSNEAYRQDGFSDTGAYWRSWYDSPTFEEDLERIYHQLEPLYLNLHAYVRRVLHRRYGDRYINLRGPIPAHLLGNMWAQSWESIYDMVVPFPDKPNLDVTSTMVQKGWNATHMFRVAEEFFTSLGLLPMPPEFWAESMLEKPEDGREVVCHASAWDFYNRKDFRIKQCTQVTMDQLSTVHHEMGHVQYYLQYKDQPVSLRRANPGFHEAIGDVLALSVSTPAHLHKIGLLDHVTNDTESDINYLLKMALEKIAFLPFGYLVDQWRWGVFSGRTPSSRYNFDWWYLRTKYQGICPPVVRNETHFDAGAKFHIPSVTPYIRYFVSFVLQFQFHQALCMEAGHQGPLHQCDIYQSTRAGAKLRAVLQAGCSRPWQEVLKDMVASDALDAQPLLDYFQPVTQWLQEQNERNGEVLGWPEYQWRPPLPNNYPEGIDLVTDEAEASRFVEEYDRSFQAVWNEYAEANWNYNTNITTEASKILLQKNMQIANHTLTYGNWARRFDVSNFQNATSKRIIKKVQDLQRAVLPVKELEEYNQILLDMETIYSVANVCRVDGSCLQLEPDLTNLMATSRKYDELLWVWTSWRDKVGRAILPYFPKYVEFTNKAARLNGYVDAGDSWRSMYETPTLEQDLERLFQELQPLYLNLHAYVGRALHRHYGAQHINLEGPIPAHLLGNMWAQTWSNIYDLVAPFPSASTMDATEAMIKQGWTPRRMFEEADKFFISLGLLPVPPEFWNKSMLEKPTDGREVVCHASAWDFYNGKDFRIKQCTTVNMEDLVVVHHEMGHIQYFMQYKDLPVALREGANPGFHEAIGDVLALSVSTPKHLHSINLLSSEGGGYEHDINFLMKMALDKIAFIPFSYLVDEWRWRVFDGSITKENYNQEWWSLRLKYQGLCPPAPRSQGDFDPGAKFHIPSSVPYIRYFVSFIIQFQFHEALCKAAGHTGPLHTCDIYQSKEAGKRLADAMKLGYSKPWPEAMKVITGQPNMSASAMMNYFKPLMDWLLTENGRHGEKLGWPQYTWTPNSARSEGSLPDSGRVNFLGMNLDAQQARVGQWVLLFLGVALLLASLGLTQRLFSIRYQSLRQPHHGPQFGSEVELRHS
Assay: ACE cleavage of Ang I peptide analogues (LC-MS)
Assay type: biochemical
Conditions: after 120 min; 0.1 mg peptide in 100 μL ACE stock solution (0.34 mg/mL, 200 mM HEPES pH 7.8), room temperature
Description: ACE stock solution was prepared: 0.34 mg ACE (Sigma A-6778) was dissolved in 1 mL 200 mM HEPES adjusted to pH 7.8 using KOH.
0.1 mg of the Ang I peptide analogue was dissolved in 100 μL of the ACE stock solution and the solution incubated at room temperature. Samples (10 μL) were withdrawn from the solution, diluted with H2O/0.1% TFA (400 μL) and analysed by LC-MS.

percent cleavage/time [%/120 min]	Molecule
40	CCC(C)[C@H](NC(=O)[C@H](Cc1ccc(O)cc1)NC(=O)[C@@H](NC(=O)[C@H](CCCNC(=N)N)NC(=O)CNCCC(CCNC(C)(C)/C(C)=N\O)CCNC(C)(C)/C(C)=N\O)C(C)C)C(=O)N[C@@H](Cc1cnc[nH]1)C(=O)N1CCC[C@H]1C(=O)N[C@@H](Cc1ccccc1)C(=O)N[C@@H](Cc1cnc[nH]1)C(=O)N[C@@H](CC(C)C)C(=O)O (stereo partly drawn) [cPn216-Gly-Arg-Val-Tyr-Ile-His-Pro-Phe-His-Leu-OH] (H-[X1]RVY[Ile(3ξ)]HPFHL-OH)
40	Ang I: the decapeptide Ang I, formed from angiotensinogen by renin and converted by ACE to the active Ang II

— patent publication US7763234B2, “Pharmaceutical compounds” (GE Healthcare AS, priority 2005, dated 2010)
